According to patent publication US7598092B2, “Methods, devices, systems and computer program products for stochastic, competitive, force-based analyte detection” (priority 2006, dated 2009):
Read-outs that look alike come from different tables or passages of the source.

Columns and labels:
galectin 3 = galectin 3 (Mus musculus, UniProt P16110); test: isothermal titration calorimetry of soluble ligand binding to galectin 3; parameters: species or system Murine
Murine galectin 3 = Murine galectin 3 (Mus musculus, UniProt P16110); details: Gaussian fit of 10 pN bins
Murine galectin 3, sequence (P16110 whole entry): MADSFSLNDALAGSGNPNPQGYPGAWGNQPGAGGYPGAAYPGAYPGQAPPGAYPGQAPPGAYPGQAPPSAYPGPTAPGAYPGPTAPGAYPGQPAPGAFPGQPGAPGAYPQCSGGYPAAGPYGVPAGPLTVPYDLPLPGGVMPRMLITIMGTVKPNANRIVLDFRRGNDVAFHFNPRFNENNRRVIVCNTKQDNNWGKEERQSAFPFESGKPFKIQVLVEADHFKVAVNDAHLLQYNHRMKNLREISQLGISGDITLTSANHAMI

Avidin = Avidin (Gallus gallus, UniProt P02701); details: cited from earlier work
Avidin, sequence (P02701 25-152): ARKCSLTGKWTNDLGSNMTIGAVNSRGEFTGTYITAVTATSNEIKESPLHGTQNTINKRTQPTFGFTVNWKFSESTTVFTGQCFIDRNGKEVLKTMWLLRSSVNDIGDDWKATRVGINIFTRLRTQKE

streptavidin = streptavidin (Streptomyces avidinii, UniProt P22629); details: cited from earlier work
streptavidin, sequence (P22629 25-183): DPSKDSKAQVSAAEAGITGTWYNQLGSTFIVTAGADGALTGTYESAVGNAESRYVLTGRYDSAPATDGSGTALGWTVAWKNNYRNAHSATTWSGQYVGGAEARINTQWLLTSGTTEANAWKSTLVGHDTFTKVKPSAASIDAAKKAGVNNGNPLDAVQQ

galectin 3, sequence (P16110 whole entry): as the sequence (P16110 whole entry) above

In the case of `CO[C@@H]1O[C@H](CO)[C@@H](O[C@@H]2O[C@H](CO)[C@H](O)[C@H](O)[C@H]2O)[C@H](O)[C@H]1O` [β-methyl lactoside], the “association constant, the affinity measured by isothermal titration calorimetry” value (galectin 3) is reported as 6400±100.

For `OC[C@H]1O[C@@H](O[C@H]2[C@H](O)[C@@H](O)C(O)O[C@@H]2CO)[C@H](O)[C@@H](O)[C@H]1O` (some centres unmarked) [lactose], the average rupture force (Murine galectin 3; Fe^3+ surface immobilization of galectin 3) was 71 pN and the average rupture force (Murine galectin 3; Ni^2+ surface immobilization of galectin 3) was 72 pN.

For `O=C(O)CCCC[C@@H]1SC[C@@H]2NC(=O)N[C@@H]21` [biotin, Biotin], the Ka (Avidin) is given as 10^13-10^15 M^−1 and the Ka (streptavidin) is given as ~10^14 M^−1.
